{"source": "ChEMBL document CHEMBL4396923", "about": "“Applications of amide isosteres in medicinal chemistry” (Bioorg Med Chem Lett, 2019)", "key": {"[1]": {"assay": "Half life in human serum", "format": "ADME, cell-free"}, "[2]": {"target": "Delta-type opioid receptor (Homo sapiens, UniProt P41143)", "sequence (P41143 whole entry)": "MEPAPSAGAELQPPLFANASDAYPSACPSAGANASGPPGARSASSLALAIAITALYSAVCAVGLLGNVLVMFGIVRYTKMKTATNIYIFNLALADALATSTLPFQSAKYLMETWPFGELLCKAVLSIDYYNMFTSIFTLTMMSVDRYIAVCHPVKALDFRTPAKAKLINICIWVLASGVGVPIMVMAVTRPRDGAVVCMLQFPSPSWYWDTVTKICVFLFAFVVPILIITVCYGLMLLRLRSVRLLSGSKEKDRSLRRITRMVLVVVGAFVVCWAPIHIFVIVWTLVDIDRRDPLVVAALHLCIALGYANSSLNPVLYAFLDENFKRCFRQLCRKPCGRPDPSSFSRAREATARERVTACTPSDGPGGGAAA", "description": "Agonist activity at delta opioid receptor (unknown origin) expressed in CHO cells"}, "[3]": {"target": "Beta-secretase 1 (Homo sapiens, UniProt P56817)", "sequence (P56817 whole entry)": "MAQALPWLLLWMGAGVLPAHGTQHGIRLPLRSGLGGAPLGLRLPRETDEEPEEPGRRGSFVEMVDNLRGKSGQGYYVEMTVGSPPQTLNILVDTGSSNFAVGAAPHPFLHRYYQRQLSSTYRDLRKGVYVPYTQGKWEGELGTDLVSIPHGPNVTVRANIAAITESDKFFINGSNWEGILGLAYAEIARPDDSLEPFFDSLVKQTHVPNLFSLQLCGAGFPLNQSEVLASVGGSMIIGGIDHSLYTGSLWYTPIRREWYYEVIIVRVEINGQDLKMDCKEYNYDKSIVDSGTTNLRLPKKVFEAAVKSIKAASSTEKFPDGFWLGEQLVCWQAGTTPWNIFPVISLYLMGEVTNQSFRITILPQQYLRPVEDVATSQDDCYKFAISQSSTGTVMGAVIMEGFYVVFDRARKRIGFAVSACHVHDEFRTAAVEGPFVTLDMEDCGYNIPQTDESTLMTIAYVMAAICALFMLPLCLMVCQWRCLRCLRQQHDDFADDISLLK", "assay": "Inhibition of BACE-1 (unknown origin)"}, "[4]": {"target": "D(2) dopamine receptor (Homo sapiens) (UniProt P14416)", "sequence (P14416 whole entry)": "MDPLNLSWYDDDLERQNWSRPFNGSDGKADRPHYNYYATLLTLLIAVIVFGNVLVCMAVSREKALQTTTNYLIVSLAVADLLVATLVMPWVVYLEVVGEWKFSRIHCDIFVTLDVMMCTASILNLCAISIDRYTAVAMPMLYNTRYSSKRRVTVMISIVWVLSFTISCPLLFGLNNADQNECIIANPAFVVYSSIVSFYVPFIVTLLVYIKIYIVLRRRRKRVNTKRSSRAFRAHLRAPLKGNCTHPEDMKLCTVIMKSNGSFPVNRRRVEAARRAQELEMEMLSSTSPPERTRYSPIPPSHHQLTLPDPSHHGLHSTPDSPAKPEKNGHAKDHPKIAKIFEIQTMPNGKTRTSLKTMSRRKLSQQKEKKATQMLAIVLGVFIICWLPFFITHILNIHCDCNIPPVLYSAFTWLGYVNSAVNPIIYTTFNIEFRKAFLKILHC", "assay": "Agonist activity at human D2 receptor expressed in NIH/3T3 cells co-expressing beta-galactosidase assessed as increase in beta-galactosidase activity at 10 uM incubated for 5 days by spectrophotometry relative to control", "format": "cell-based"}, "[5]": {"system": "Hamster", "assay": "Protection against HLE-induced acute lung damage in hamster", "format": "functional", "conditions": "Cricetinae"}, "[6]": {"target": "angiotensin-converting enzyme (Homo sapiens, UniProt P12821)", "sequence (P12821 whole entry)": "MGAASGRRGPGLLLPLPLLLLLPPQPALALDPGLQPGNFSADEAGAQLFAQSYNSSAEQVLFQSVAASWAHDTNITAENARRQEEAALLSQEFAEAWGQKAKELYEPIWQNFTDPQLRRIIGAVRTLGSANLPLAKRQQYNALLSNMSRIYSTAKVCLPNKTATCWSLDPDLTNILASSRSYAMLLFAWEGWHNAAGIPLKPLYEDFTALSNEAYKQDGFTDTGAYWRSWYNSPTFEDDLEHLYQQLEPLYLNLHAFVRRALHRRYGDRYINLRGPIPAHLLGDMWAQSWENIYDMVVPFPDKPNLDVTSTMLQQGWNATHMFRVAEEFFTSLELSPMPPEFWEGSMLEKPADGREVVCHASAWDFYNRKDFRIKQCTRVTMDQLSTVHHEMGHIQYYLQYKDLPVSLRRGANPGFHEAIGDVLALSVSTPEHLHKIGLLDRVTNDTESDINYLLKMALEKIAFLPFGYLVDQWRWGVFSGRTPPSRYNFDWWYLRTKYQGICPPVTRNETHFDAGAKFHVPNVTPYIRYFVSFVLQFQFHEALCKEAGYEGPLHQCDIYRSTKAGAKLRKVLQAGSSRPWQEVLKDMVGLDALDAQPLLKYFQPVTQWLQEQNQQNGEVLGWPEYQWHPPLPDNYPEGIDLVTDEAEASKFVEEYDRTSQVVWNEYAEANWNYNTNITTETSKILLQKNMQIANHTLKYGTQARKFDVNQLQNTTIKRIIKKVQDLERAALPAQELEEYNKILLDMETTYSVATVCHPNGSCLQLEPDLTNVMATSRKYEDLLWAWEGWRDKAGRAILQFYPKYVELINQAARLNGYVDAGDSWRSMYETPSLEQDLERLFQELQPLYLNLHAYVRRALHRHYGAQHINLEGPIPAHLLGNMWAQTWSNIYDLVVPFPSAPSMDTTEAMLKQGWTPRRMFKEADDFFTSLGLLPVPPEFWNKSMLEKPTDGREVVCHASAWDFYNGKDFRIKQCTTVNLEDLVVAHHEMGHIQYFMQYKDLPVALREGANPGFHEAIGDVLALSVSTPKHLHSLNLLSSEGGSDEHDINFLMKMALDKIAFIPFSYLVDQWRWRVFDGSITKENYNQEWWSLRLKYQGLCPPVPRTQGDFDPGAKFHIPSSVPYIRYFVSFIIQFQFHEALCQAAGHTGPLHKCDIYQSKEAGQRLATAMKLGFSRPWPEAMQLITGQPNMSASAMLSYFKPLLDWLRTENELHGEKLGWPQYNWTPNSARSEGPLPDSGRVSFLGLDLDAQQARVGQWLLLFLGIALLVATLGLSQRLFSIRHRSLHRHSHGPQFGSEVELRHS", "assay": "Drug metabolism assessed as angiotensin converting enzyme (unknown origin)-mediated Gly3-Phe4 cleavage by measuring half life", "format": "ADME"}, "[7]": {"assay": "Stability in rat plasma assessed as parent compound remaining at 4 hrs", "format": "ADME, cell-free", "conditions": "read-out: Stability"}, "[8]": {"assay": "Stability in human plasma assessed as parent compound remaining at 4 hrs", "format": "ADME, cell-free", "conditions": "read-out: Stability"}, "[9]": {"target": "Mu-type opioid receptor (Homo sapiens, UniProt P35372)", "sequence (P35372 whole entry)": "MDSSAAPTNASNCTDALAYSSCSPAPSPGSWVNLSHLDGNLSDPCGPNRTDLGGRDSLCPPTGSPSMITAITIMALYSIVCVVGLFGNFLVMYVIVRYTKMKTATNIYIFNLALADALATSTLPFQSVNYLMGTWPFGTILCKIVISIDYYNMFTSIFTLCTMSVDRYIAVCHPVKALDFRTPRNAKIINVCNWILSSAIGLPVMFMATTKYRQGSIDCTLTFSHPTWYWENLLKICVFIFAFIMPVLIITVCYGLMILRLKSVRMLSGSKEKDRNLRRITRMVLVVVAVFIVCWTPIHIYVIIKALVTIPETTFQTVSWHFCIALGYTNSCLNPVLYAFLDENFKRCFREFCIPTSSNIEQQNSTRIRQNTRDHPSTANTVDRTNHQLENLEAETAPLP", "assay": "Agonist activity at mu opioid receptor (unknown origin) expressed in CHO cells", "format": "cell-based"}, "[10]": {"target": "Kappa-type opioid receptor (Homo sapiens, UniProt P41145)", "sequence (P41145 whole entry)": "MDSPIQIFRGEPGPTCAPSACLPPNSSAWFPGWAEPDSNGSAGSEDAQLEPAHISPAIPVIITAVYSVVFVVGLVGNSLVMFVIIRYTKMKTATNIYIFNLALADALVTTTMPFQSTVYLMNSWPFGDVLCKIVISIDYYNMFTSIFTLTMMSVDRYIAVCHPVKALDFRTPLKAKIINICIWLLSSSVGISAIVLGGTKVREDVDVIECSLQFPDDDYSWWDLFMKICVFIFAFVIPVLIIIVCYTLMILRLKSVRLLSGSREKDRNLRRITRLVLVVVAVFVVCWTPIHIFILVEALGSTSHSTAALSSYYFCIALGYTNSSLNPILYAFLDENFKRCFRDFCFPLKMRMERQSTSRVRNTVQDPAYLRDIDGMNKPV", "assay": "Agonist activity at kappa opioid receptor (unknown origin) expressed in CHO cells", "format": "cell-based"}}, "note": "Residues, ends and D or L forms follow the SMILES beside them."}
{"compound": "CC(C)C[C@H](NC(=O)[C@H](Cc1ccccc1)NC(=O)CNC(=O)CNC1([C@@H](N)Cc2ccc(O)cc2)COC1)C(=O)O.O=C(O)C(F)(F)F", "values": [{"measurement": "half-life", "setting": "[1]", "result": 3.2, "unit": "h"}]}
{"compound": "CC(C)C[C@H](NC1([C@H](Cc2ccccc2)NC(=O)CNC(=O)CNC(=O)[C@@H](N)Cc2ccc(O)cc2)COC1)C(=O)O.O=C(O)C(F)(F)F", "values": [{"measurement": "half-life", "setting": "[1]", "result": 0.433, "unit": "h"}, {"measurement": "Ki", "setting": "[2]", "result": 0.043, "unit": "µM"}]}
{"compound": "COC(=O)[C@@H]1C[C@H](NC(=O)[C@@H](NC(=O)C[C@H](O)[C@H](Cc2cc(F)cc(F)c2)NC(=O)C(O)c2ccccc2-c2ccccc2)C(C)C)C[C@H](C(=O)OC)C1", "note": "(stereo partly drawn)", "values": [{"measurement": "IC50", "setting": "[3]", "result": 0.12, "unit": "µM"}]}
{"compound": "CC(C)C[C@H](NC(=O)[C@H](Cc1ccccc1)NC(=O)CNC1(CNC(=O)[C@@H](N)Cc2ccc(O)cc2)COC1)C(=O)O.O=C(O)C(F)(F)F", "values": [{"measurement": "half-life", "setting": "[1]", "result": 18, "unit": "h"}]}
{"compound": "CC(C)C[C@H](NC(=O)[C@H](Cc1ccccc1)NC(=O)CNC(=O)CNC([C@@H](N)Cc1ccc(O)cc1)C(F)(F)F)C(=O)O", "note": "(mixture of isomers)", "values": [{"measurement": "EC50", "setting": "[2]", "result": "> 0.01", "unit": "µM"}]}
{"compound": "CC(C)C[C@H](NC(=O)[C@@H]1CCCN1)C(=O)NCC(N)=O", "note": "(H-Pro-Leu-Gly-NH2)", "values": [{"measurement": "Activity", "setting": "[4]", "result": 146, "unit": "%"}]}
{"compound": "CC(C)C[C@H](NC(=O)[C@@H](/C=C(\\F)CNC(=O)CNC(=O)[C@@H](N)Cc1ccc(O)cc1)Cc1ccccc1)C(=O)O", "values": [{"measurement": "EC50", "setting": "[2]", "result": 0.043, "unit": "µM"}]}
{"compound": "CC(C)C(NC(=O)Cn1c(-c2ccc(F)cc2)ncc(N)c1=O)C(=O)C(F)(F)F", "note": "(stereo not drawn)", "values": [{"measurement": "ED50", "setting": "[5]", "result": 7.5, "unit": "mg/kg"}]}
{"compound": "CC(C)C[C@H](NC(=O)[C@H](Cc1ccccc1)NC(=O)CNC(=O)CNC(=O)[C@@H](N)Cc1ccc(O)cc1)C(=O)O", "note": "[ENKEPHALIN]", "values": [{"measurement": "half-life", "setting": "[6]", "result": 2.17, "unit": "h"}]}
{"compound": "Cc1ccc(C[C@H](N)/C(F)=C/CC(=O)NCC(=O)N[C@@H](Cc2ccccc2)C(=O)N[C@@H](CC(C)C)C(=O)O)cc1", "values": [{"measurement": "remaining at 4 h", "setting": "[7]", "result": 76, "unit": "%"}, {"measurement": "remaining at 4 h", "setting": "[8]", "result": 68, "unit": "%"}, {"measurement": "EC50", "setting": "[9]", "result": 0.06, "unit": "µM"}, {"measurement": "EC50", "setting": "[10]", "result": "> 0.01", "unit": "µM"}, {"measurement": "EC50", "setting": "[2]", "result": 0.005, "unit": "µM"}]}
{"compound": "CC(C)C[C@H](NC(=O)[C@H](Cc1ccccc1)NC1(CNC(=O)CNC(=O)[C@@H](N)Cc2ccc(O)cc2)COC1)C(=O)O.O=C(O)C(F)(F)F", "values": [{"measurement": "half-life", "setting": "[1]", "result": 0.25, "unit": "h"}, {"measurement": "Ki", "setting": "[2]", "result": 0.157, "unit": "µM"}]}
{"compound": "CC(C)C[C@H](NC(=O)[C@@H](/C=C/CNC(=O)CNC(=O)[C@@H](N)Cc1ccc(O)cc1)Cc1ccccc1)C(=O)O", "values": [{"measurement": "EC50", "setting": "[2]", "result": 0.587, "unit": "µM"}]}
